Assay results taken from PubChem BioAssay (NCI).
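Assay format: 96-well plates, 48-hour exposure. GI50: concentration for 50% inhibition of growth. TGI denotes the concentration required for complete inhibition of growth.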

Legend:
Test in all cases: NCI-60 cell line screen, 48 h
786-0 renal = system: 786-0 renal
A498 renal = system: A498 renal
A549 NSCLC = system: A549 NSCLC
ACHN renal = system: ACHN renal
BT-549 breast = system: BT-549 breast
CAKI-1 renal = system: CAKI-1 renal
CCRF-CEM leukemia = system: CCRF-CEM leukemia
COLO 205 colon = system: COLO 205 colon
DU-145 prostate = system: DU-145 prostate
EKVX NSCLC = system: EKVX NSCLC
HCC-2998 colon = system: HCC-2998 colon
HCT-116 colon = system: HCT-116 colon
HCT-15 colon = system: HCT-15 colon
HL-60(TB) leukemia = system: HL-60(TB) leukemia
HOP-62 NSCLC = system: HOP-62 NSCLC
HOP-92 NSCLC = system: HOP-92 NSCLC
HS 578T breast = system: HS 578T breast
HT29 colon = system: HT29 colon
IGROV1 ovarian = system: IGROV1 ovarian
K-562 leukemia = system: K-562 leukemia
KM12 colon = system: KM12 colon
LOX IMVI melanoma = system: LOX IMVI melanoma
M14 melanoma = system: M14 melanoma
MALME-3M melanoma = system: MALME-3M melanoma
MCF7 breast = system: MCF7 breast
MDA-MB-231 breast = system: MDA-MB-231 breast
MDA-MB-435 = system: MDA-MB-435
MOLT-4 leukemia = system: MOLT-4 leukemia
NCI-H226 lung = system: NCI-H226 lung
NCI-H23 lung = system: NCI-H23 lung
NCI-H460 lung = system: NCI-H460 lung
NCI-H522 lung = system: NCI-H522 lung
NCI/ADR-RES ovarian = system: NCI/ADR-RES ovarian
OVCAR-3 ovarian = system: OVCAR-3 ovarian
OVCAR-4 ovarian = system: OVCAR-4 ovarian
OVCAR-5 ovarian = system: OVCAR-5 ovarian
OVCAR-8 ovarian = system: OVCAR-8 ovarian
PC-3 prostate = system: PC-3 prostate
RPMI-8226 leukemia = system: RPMI-8226 leukemia
RXF 393 renal = system: RXF 393 renal
SF-268 CNS = system: SF-268 CNS
SF-295 CNS = system: SF-295 CNS
SF-539 CNS = system: SF-539 CNS
SK-MEL-2 melanoma = system: SK-MEL-2 melanoma
SK-MEL-28 melanoma = system: SK-MEL-28 melanoma
SK-MEL-5 melanoma = system: SK-MEL-5 melanoma
SK-OV-3 ovarian = system: SK-OV-3 ovarian
SN12C renal = system: SN12C renal
SNB-19 CNS = system: SNB-19 CNS
SNB-75 CNS = system: SNB-75 CNS
SR leukemia = system: SR leukemia
SW-620 colon = system: SW-620 colon
T-47D breast = system: T-47D breast
TK-10 renal = system: TK-10 renal
U251 CNS = system: U251 CNS
UACC-257 melanoma = system: UACC-257 melanoma
UACC-62 melanoma = system: UACC-62 melanoma
UO-31 renal = system: UO-31 renal

## Cn1nc(N)c2cc([C@@H]3Nc4ccc5[nH]ncc5c4[C@H]4C5CCC(C5)[C@@H]34)ccc21 (stereo partly specified)
786-0 renal
  GI50: 586 nM
  TGI: 18100 nM
A498 renal
  GI50: 225 nM
  TGI: 1150 nM
A549 NSCLC
  GI50: 699 nM
  TGI: > 100000 nM
ACHN renal
  GI50: 593 nM
  TGI: 41100 nM
BT-549 breast
  GI50: 1010 nM
  TGI: 12300 nM
CAKI-1 renal
  GI50: 334 nM
  TGI: 33400 nM
CCRF-CEM leukemia
  GI50: 377 nM
  TGI: > 43400 nM
COLO 205 colon
  GI50: 431 nM
  TGI: 13000 nM
DU-145 prostate
  GI50: 438 nM
  TGI: 37700 nM
EKVX NSCLC
  GI50: 732 nM
  TGI: 67000 nM
HCC-2998 colon
  GI50: 1500 nM
  TGI: 13400 nM
HCT-116 colon
  GI50: 448 nM
  TGI: 13900 nM
HCT-15 colon
  GI50: 425 nM
  TGI: 14000 nM
HL-60(TB) leukemia
  GI50: 381 nM
  TGI: 6460 nM
HOP-62 NSCLC
  GI50: 603 nM
  TGI: 25500 nM
HOP-92 NSCLC
  GI50: 1510 nM
  TGI: 17900 nM
HS 578T breast
  GI50: 373 nM
  TGI: 43400 nM
HT29 colon
  GI50: 387 nM
  TGI: > 38100 nM
IGROV1 ovarian
  GI50: 756 nM
  TGI: 22800 nM
K-562 leukemia
  GI50: 324 nM
  TGI: > 100000 nM
KM12 colon
  GI50: 486 nM
  TGI: 15200 nM
LOX IMVI melanoma
  GI50: 515 nM
  TGI: 15700 nM
M14 melanoma
  GI50: 372 nM
  TGI: 9980 nM
MALME-3M melanoma
  GI50: 442 nM
  TGI: 32700 nM
MCF7 breast
  GI50: 327 nM
  TGI: 18400 nM
MDA-MB-231 breast
  GI50: 2310 nM
  TGI: 16800 nM
MDA-MB-435
  GI50: 166 nM
  TGI: 437 nM
MOLT-4 leukemia
  GI50: 556 nM
  TGI: > 51000 nM
NCI-H226 lung
  GI50: 1140 nM
  TGI: 23500 nM
NCI-H23 lung
  GI50: 643 nM
  TGI: 17400 nM
NCI-H460 lung
  GI50: 402 nM
  TGI: 11600 nM
NCI-H522 lung
  GI50: 474 nM
  TGI: 24000 nM
NCI/ADR-RES ovarian
  GI50: 400 nM
  TGI: 10000 nM
OVCAR-3 ovarian
  GI50: 337 nM
  TGI: 4070 nM
OVCAR-4 ovarian
  GI50: 2670 nM
  TGI: > 95000 nM
OVCAR-5 ovarian
  GI50: 1480 nM
  TGI: 23400 nM
OVCAR-8 ovarian
  GI50: 979 nM
  TGI: > 88200 nM
PC-3 prostate
  GI50: 418 nM
  TGI: 19800 nM
RPMI-8226 leukemia
  GI50: 360 nM
  TGI: 3690 nM
RXF 393 renal
  GI50: 227 nM
  TGI: 825 nM
SF-268 CNS
  GI50: 1320 nM
  TGI: 41000 nM
SF-295 CNS
  GI50: 320 nM
  TGI: 11700 nM
SF-539 CNS
  GI50: 333 nM
  TGI: 5090 nM
SK-MEL-2 melanoma
  GI50: 11100 nM
  TGI: 39400 nM
SK-MEL-28 melanoma
  GI50: 4350 nM
  TGI: 29100 nM
SK-MEL-5 melanoma
  GI50: 363 nM
  TGI: 12700 nM
SK-OV-3 ovarian
  GI50: 1160 nM
  TGI: 69100 nM
SN12C renal
  GI50: 612 nM
  TGI: 21200 nM
SNB-19 CNS
  GI50: 2340 nM
  TGI: 34800 nM
SNB-75 CNS
  GI50: 152 nM
  TGI: 3270 nM
SR leukemia
  GI50: 426 nM
  TGI: > 100000 nM
SW-620 colon
  GI50: 391 nM
  TGI: 28000 nM
T-47D breast
  GI50: 471 nM
  TGI: 58800 nM
TK-10 renal
  GI50: 19600 nM
  TGI: > 100000 nM
U251 CNS
  GI50: 618 nM
  TGI: 23200 nM
UACC-257 melanoma
  GI50: 15900 nM
  TGI: 59500 nM
UACC-62 melanoma
  GI50: 425 nM
  TGI: 17700 nM
UO-31 renal
  GI50: 831 nM
  TGI: 40800 nM
